According to US20090317376A1, “Compositions And Methods For Lipo Modeling” (Georgetown University MEDICAL SCHOOL, priority 2005, published 2009):
“Also recorded” adds a separate entry of the source.

System: human fat pads
Assay: Human fat xenograft in nude athymic mice
Assay type: in vivo
Procedure: In addition to augmenting mouse fat with NPY, human fat from elective liposuction surgery is harvested by using a closed syringe system (Cell Friendly, Tulip Medical) to minimize cell trauma during harvest and aliquots of 100 μl are injected subcutaneously into a nude athymic mouse. Slow release pellets of NPY or placebo are subcutaneously implanted within 1 cm of the fat pad, replaced 2 weeks later, and then harvested after 4 weeks of formation of fat pads. Ultrasound is used to monitor vascularization of fat pads at various time points. The time-course of expression of the NPY system and its downstream mediators is determined in relation to innervation, vascularization and fat growth (by MRI, ultrasound, IHC). Dependence of adipogenesis on angiogenesis is assessed by comparing non-specific, antiangiogenic therapy with the blockade of the NPY-Y2 angiogenic pathway. […] This observation is confirmed by ultrasound (FIG. 7, bottom).
Human fat implantation: The processed fat for injection is loaded into syringes. The nude mice are anesthetized and slow release pellets inserted as described above. A small nick is made with a pair of sterile scissors in the close proximity of the pellets and 100 μl of fat is implanted using an 18 gauge Coleman infiltration cannula (Byron Medical) attached to the syringe. If necessary, the skin wound is closed with medical cyanoacrylate and the mouse is allowed to recover. The fat pad growth is monitored and the sample harvested as described above.
Ultrasonography: The mice are anesthetized by inhalation of isoflurane 1-3% in oxygen, hair removed with depilatory cream and a sterile water based ultrasonic gel is applied to the area (Aquasonic gel—Visual Sonics). The mouse is placed in the Visual Sonics mouse holder containing a thermostatically controlled heating pad to maintain mouse body temperature. The imaging is performed with a small animal ultrasound system, Visual Sonics Vivo 660 (55 MHz).
1. Cell culture: 3T3-L1 preadipocyte cells, (gift from Dr. Lane,^34) were cultured in DMEM high glucose media with glutamine, 10% calf sera (Gemini Bioproducts), d-Biotin (8 μg/ml) and Pantothenate (8 μg/ml) (Sigma). SK-N-BE(2) neuroblastoma cells (ATCC) were cultured in EMEM/F12K with 10% fetal bovine sera (FBS). HMVEC endothelial cells (Cambrex) were cultured in endothelial cell growth media (Cambrex). All media was supplemented with 100 units/ml penicillin, 100 μg/ml streptomycin and […] amphotericin. 2. […] After 24 h, cells were harvested in a 96-well harvester (Tomtec) and counted in a Betaplate Liquid Scintillation Counter (Wallac). […] After 48 hr, the cells were counted with a Beckman Coulter Counter. […]

[1] = NPY pellet vs placebo pellet, FIG. 7

Substance: neuropeptide Y [NPY]
- xenograft vascularization (density of CD31+ vessels) (NPY pellet 1 μg/14 days alongside the xenograft): increased
- xenograft 3-month survival (NPY pellet 1 μg/14 days, placebo-treated grafts underwent resorption): increased
- areas of more dense necrotic tissue (ultrasound) [1]: more in NPY-treated than placebo-treated
- vacuolization / holes in fat pads (ultrasound, IHC) [1]: more holes in the placebo-pellet treated fat pads; also recorded: more numerous in placebo-treated than NPY-treated fat pads
